Assay results: PubChem BioAssay AID2060483 (Molecular Pharmacology Branch, DTP, NCI, 2025)

Tested on: K24384-001-R-PDC complex spheroids, viability
Experiment: Anticancer human tumor K24384-001-R-PDC patient-derived pancreatic adenocarcinoma cell line growth inhibition [GQUAD]
Conditions: for IC50: curve of first compound; for viability, T/C: stronger effect = lower value
Procedure, shortened: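 Tumor cells were grown as complex spheroids with HUVEC endothelial cells and mesenchymal stem cells as stroma. G-quadruplex stabilizers were combined with targeted agents over half-log dilutions from near the clinical Cmax, or from 10 microM.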

[1] = second compound 0.0316 µM, first compound 0.0316 µM
[2] = second compound 0.0316 µM, first compound 0.1 µM
[3] = second compound 0.0316 µM, first compound 0.316 µM
[4] = second compound 0.0316 µM, first compound 1 µM
[5] = second compound 0.0316 µM, first compound 3.16 µM
[6] = second compound 0.0316 µM, first compound 10 µM
[7] = second compound 0.1 µM, first compound 0.0316 µM
[8] = second compound 0.1 µM, first compound 0.1 µM
[9] = second compound 0.1 µM, first compound 0.316 µM
[10] = second compound 0.1 µM, first compound 1 µM
[11] = second compound 0.1 µM, first compound 3.16 µM
[12] = second compound 0.1 µM, first compound 10 µM
[13] = second compound 0.316 µM, first compound 0.0316 µM
[14] = second compound 0.316 µM, first compound 0.1 µM
[15] = second compound 0.316 µM, first compound 0.316 µM
[16] = second compound 0.316 µM, first compound 1 µM
[17] = second compound 0.316 µM, first compound 3.16 µM
[18] = second compound 0.316 µM, first compound 10 µM
[19] = second compound 1 µM, first compound 0.0316 µM
[20] = second compound 1 µM, first compound 0.1 µM
[21] = second compound 1 µM, first compound 0.316 µM
[22] = second compound 1 µM, first compound 1 µM
[23] = second compound 1 µM, first compound 3.16 µM
[24] = second compound 1 µM, first compound 10 µM
[25] = second compound 3.16 µM, first compound 0.0316 µM
[26] = second compound 3.16 µM, first compound 0.1 µM
[27] = second compound 3.16 µM, first compound 0.316 µM
[28] = second compound 3.16 µM, first compound 1 µM
[29] = second compound 3.16 µM, first compound 3.16 µM
[30] = second compound 3.16 µM, first compound 10 µM
[31] = second compound 10 µM, first compound 0.0316 µM
[32] = second compound 10 µM, first compound 0.1 µM
[33] = second compound 10 µM, first compound 0.316 µM
[34] = second compound 10 µM, first compound 1 µM
[35] = second compound 10 µM, first compound 3.16 µM
[36] = second compound 10 µM, first compound 10 µM
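Also: spheroids exposed to compounds for seven days.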

C#Cc1c(F)ccc2cc(O)cc(-c3ncc4c(N5CC6CCC(C5)N6)nc(OCC56CCCN5CC(F)C6)nc4c3F)c12 (stereo not drawn) + Cc1cnc(CNC(=O)c2c(=O)c3ccc(N4CCCN(C)CC4)nc3n3c2sc2ccccc23)cn1
IC50 (second compound 0.0316 µM): 966 nM
IC50 (second compound 0.1 µM): 494 nM
IC50 (second compound 0.316 µM): 91.8 nM
IC50 (second compound 1 µM): < 31.6 nM
IC50 (second compound 3.16 µM): < 31.6 nM
IC50 (second compound 10 µM): < 31.6 nM
viability, T/C [1]: 72%
viability, T/C [2]: 83.7%
viability, T/C [3]: 88.4%
viability, T/C [4]: 49%
viability, T/C [5]: 31.2%
viability, T/C [6]: 23.1%
viability, T/C [7]: 68.5%
viability, T/C [8]: 65.3%
viability, T/C [9]: 54%
viability, T/C [10]: 41.6%
viability, T/C [11]: 31.9%
viability, T/C [12]: 20.4%
viability, T/C [13]: 52.3%
viability, T/C [14]: 48%
viability, T/C [15]: 51.6%
viability, T/C [16]: 31.7%
viability, T/C [17]: 32.7%
viability, T/C [18]: 15.5%
viability, T/C [19]: 34.7%
viability, T/C [20]: 42.6%
viability, T/C [21]: 41.5%
viability, T/C [22]: 29%
viability, T/C [23]: 27%
viability, T/C [24]: 14.1%
viability, T/C [25]: 29%
viability, T/C [26]: 36.7%
viability, T/C [27]: 33.9%
viability, T/C [28]: 34.9%
viability, T/C [29]: 18.4%
viability, T/C [30]: 11.9%
viability, T/C [31]: 0.13%
viability, T/C [32]: 0.18%
viability, T/C [33]: 0.23%
viability, T/C [34]: 0.2%
viability, T/C [35]: 0.23%
viability, T/C [36]: 0.2%

CC(=O)O[C@H]1C(=O)[C@@]2(C)[C@H]([C@H](OC(=O)c3ccccc3)[C@]3(O)C[C@H](OC(=O)[C@H](O)[C@@H](NC(=O)c4ccccc4)c4ccccc4)C(C)=C1C3(C)C)[C@]1(OC(C)=O)CO[C@@H]1C[C@@H]2O + Cc1cnc(CNC(=O)c2c(=O)c3ccc(N4CCCN(C)CC4)nc3n3c2sc2ccccc23)cn1
IC50 (second compound 0.0316 µM): 37.4 nM
IC50 (second compound 0.1 µM): < 31.6 nM
IC50 (second compound 0.316 µM): < 31.6 nM
IC50 (second compound 1 µM): < 31.6 nM
IC50 (second compound 3.16 µM): < 31.6 nM
IC50 (second compound 10 µM): < 31.6 nM
viability, T/C [1]: 53.4%
viability, T/C [2]: 27.2%
viability, T/C [3]: 38.1%
viability, T/C [4]: 23.7%
viability, T/C [5]: 29.2%
viability, T/C [6]: 31.1%
viability, T/C [7]: 47.4%
viability, T/C [8]: 35.2%
viability, T/C [9]: 30.4%
viability, T/C [10]: 31.8%
viability, T/C [11]: 29.5%
viability, T/C [12]: 36.8%
viability, T/C [13]: 47%
viability, T/C [14]: 39.9%
viability, T/C [15]: 36.5%
viability, T/C [16]: 29.9%
viability, T/C [17]: 39.1%
viability, T/C [18]: 34.3%
viability, T/C [19]: 32.4%
viability, T/C [20]: 36.2%
viability, T/C [21]: 26.6%
viability, T/C [22]: 37.4%
viability, T/C [23]: 41.9%
viability, T/C [24]: 34.4%
viability, T/C [25]: 31.9%
viability, T/C [26]: 33.5%
viability, T/C [27]: 32.6%
viability, T/C [28]: 28.9%
viability, T/C [29]: 32.5%
viability, T/C [30]: 36.5%
viability, T/C [31]: 0.14%
viability, T/C [32]: 0.18%
viability, T/C [33]: 0.21%
viability, T/C [34]: 0.18%
viability, T/C [35]: 0.19%
viability, T/C [36]: 0.2%

CCCS(=O)(=O)Nc1ccc(F)c(C(=O)c2c[nH]c3ncc(-c4ccc(Cl)cc4)cc23)c1F + Cc1cnc(CNC(=O)c2c(=O)c3ccc(N4CCCN(C)CC4)nc3n3c2sc2ccccc23)cn1
IC50 (second compound 0.0316 µM): 8050 nM
IC50 (second compound 0.1 µM): 6380 nM
IC50 (second compound 0.316 µM): > 10000 nM
IC50 (second compound 1 µM): < 31.6 nM
IC50 (second compound 3.16 µM): < 31.6 nM
IC50 (second compound 10 µM): < 31.6 nM
viability, T/C [1]: 78%
viability, T/C [2]: 84.4%
viability, T/C [3]: 113%
viability, T/C [4]: 93.8%
viability, T/C [5]: 105%
viability, T/C [6]: 39.5%
viability, T/C [7]: 50.8%
viability, T/C [8]: 84.2%
viability, T/C [9]: 63.4%
viability, T/C [10]: 90.9%
viability, T/C [11]: 90.6%
viability, T/C [12]: 33.5%
viability, T/C [13]: 48.5%
viability, T/C [14]: 56.8%
viability, T/C [15]: 62%
viability, T/C [16]: 64.8%
viability, T/C [17]: 65.9%
viability, T/C [18]: 31.1%
viability, T/C [19]: 37.2%
viability, T/C [20]: 36%
viability, T/C [21]: 33.6%
viability, T/C [22]: 48.3%
viability, T/C [23]: 60.2%
viability, T/C [24]: 29%
viability, T/C [25]: 39.4%
viability, T/C [26]: 35.2%
viability, T/C [27]: 37.1%
viability, T/C [28]: 34.6%
viability, T/C [29]: 39.5%
viability, T/C [30]: 16.2%
viability, T/C [31]: 0.22%
viability, T/C [32]: 0.41%
viability, T/C [33]: 0.78%
viability, T/C [34]: 0.33%
viability, T/C [35]: 0.23%
viability, T/C [36]: 0.18%

Cc1[nH]c2ccccc2c1CCNCc1ccc(/C=C/C(=O)NO)cc1 + Cc1cnc(CNC(=O)c2c(=O)c3ccc(N4CCCN(C)CC4)nc3n3c2sc2ccccc23)cn1
IC50 (second compound 0.0316 µM): 118 nM
IC50 (second compound 0.1 µM): 79.4 nM
IC50 (second compound 0.316 µM): 39.5 nM
IC50 (second compound 1 µM): < 0.999 nM
IC50 (second compound 3.16 µM): < 0.999 nM
IC50 (second compound 10 µM): < 0.999 nM
viability, T/C (second compound 0.0316 µM, first compound 0.000999 µM): 83.9%
viability, T/C (second compound 0.0316 µM, first compound 0.00316 µM): 75.8%
viability, T/C (second compound 0.0316 µM, first compound 0.00999 µM): 109%
viability, T/C [1]: 82.9%
viability, T/C (second compound 0.0316 µM, first compound 0.0999 µM): 57.4%
viability, T/C [3]: 6.49%
viability, T/C (second compound 0.1 µM, first compound 0.000999 µM): 65.4%
viability, T/C (second compound 0.1 µM, first compound 0.00316 µM): 81.2%
viability, T/C (second compound 0.1 µM, first compound 0.00999 µM): 74.7%
viability, T/C [7]: 57%
viability, T/C (second compound 0.1 µM, first compound 0.0999 µM): 48.9%
viability, T/C [9]: 5.15%
viability, T/C (second compound 0.316 µM, first compound 0.000999 µM): 45.5%
viability, T/C (second compound 0.316 µM, first compound 0.00316 µM): 54.4%
viability, T/C (second compound 0.316 µM, first compound 0.00999 µM): 63.1%
viability, T/C [13]: 44.8%
viability, T/C (second compound 0.316 µM, first compound 0.0999 µM): 45.6%
viability, T/C [15]: 1.86%
viability, T/C (second compound 1 µM, first compound 0.000999 µM): 41.3%
viability, T/C (second compound 1 µM, first compound 0.00316 µM): 41.8%
viability, T/C (second compound 1 µM, first compound 0.00999 µM): 37.3%
viability, T/C [19]: 37.3%
viability, T/C (second compound 1 µM, first compound 0.0999 µM): 28.2%
viability, T/C [21]: 0.15%
viability, T/C (second compound 3.16 µM, first compound 0.000999 µM): 33.8%
viability, T/C (second compound 3.16 µM, first compound 0.00316 µM): 33.3%
viability, T/C (second compound 3.16 µM, first compound 0.00999 µM): 35.4%
viability, T/C [25]: 34.6%
viability, T/C (second compound 3.16 µM, first compound 0.0999 µM): 13.5%
viability, T/C [27]: 0.12%
viability, T/C (second compound 10 µM, first compound 0.000999 µM): 0.27%
viability, T/C (second compound 10 µM, first compound 0.00316 µM): 0.26%
viability, T/C (second compound 10 µM, first compound 0.00999 µM): 0.28%
viability, T/C [31]: 0.32%
viability, T/C (second compound 10 µM, first compound 0.0999 µM): 0.26%
viability, T/C [33]: 0.21%
